Data as given in patent publication US20240139149A1, “THERAPEUTIC USES OF UROLITHIN DERIVATIVES” (Vandria SA, priority 2022, published 2024).
“Also recorded” adds a separate entry of the source.

Test system: aged mice injected with Aβ1-42
Assay: Mouse model of Alzheimer's disease, intrahippocampal injection of Aβ1-42 oligomers
Assay type: in vivo
Procedure: A total of 18-month-old C57BL6 male mice were included in the study (n=12 per group). The animals were housed up to 4 to a cage, in clear polycarbonate cages with a stainless steel mesh lid and floor in a day/night inversed cycle (12 h/12 h). Drinking water and food were supplied ad libitum to each cage. The animals were kept for a period of acclimation of a minimum of 5 days before any handling.
All mice were subjected to surgery and were injected with 2 μL of vehicle or of A 1-42 solution. Aβ1-42 peptide (Bachem) was dissolved in the vehicle, at an initial concentration of 100 μM (the mother preparation was characterized by automatic WB, and precisely contained 15% of AβO). This solution was gently agitated for 3 days at 37° C. in the dark before any use until the day of the surgery.
The Aβ1-42 preparation was bilaterally injected into the […] of the CA1 area of the hippocampus (at three different depths). A total of 2 μL/side of A 1-42 preparation (100 μM), or vehicle, were bilaterally injected with a Hamilton syringe in the CA1 area of the hippocampus (0.2 μL/min with an Elite Nanomite syringe pump).
Vehicle (0.5% carboxy methyl cellulose (CMC)) or 33 at 1 mg/kg/d was administrated daily by gavage (per os: p.o). The treatment started 1 day after the surgery (D+1) and lasted until the end of the study (D+27). The study was stopped 4 weeks after the surgery (on D28).
The week before the surgery, a training session was performed, for habituation (5 minutes) to the maze. Fourteen (14) days after the surgery, mice were tested for short-term memory deficit in the Y-maze test.
The test was based on two trials: • Trial 1. Mice were allowed to freely explore two arms of the Y-maze during 5 min. The third arm remained closed during the trial. At the end of the 5 min, the animal was placed for 3 min in an empty cage. The Y-maze was cleaned with acetic acid to neutralize odors. • Trial 2. Mice were then allowed to freely explore the three arms of the Y-maze during 5 min. This trial corresponds to the test session.
Both trials were recorded by a video camera using Ethovision system (Noldus). The following items were automatically recorded: a) total distance in the Y-maze and b) the time spent in each arm.
At the end of the experiment (on day 28), 5 mice per group were deeply anesthetized and plasma samples were collected. Mice were then perfused with cold PBS (3 minutes), and cold paraformaldehyde (PFA) 4% in PBS (for 3 minutes).
Six (n=6) brain sections per animal were processed and incubated for 24 hours at 4° C. or 2 hours at room temperature with selected antibodies (Abs). The following antibodies were used: • NeuN: Rabbit polyclonal antibody anti-NeuN (1/1000). • Iba1: Rabbit polyclonal antibody anti-Iba1 (1/500). • Tau phospho Ser212/Thr214 (AT100): Mouse monoclonal antibody anti-AT100 (1/200).
Images were acquired with a confocal microscope LSM 900 with Zen software at 20× magnification (Zeiss) using the same acquisition parameters (automatic acquisition). […] The following read-outs were measured: • Number of NeuN positive pyramidal cells in the CA1 area. • Activation of Iba1-positive microglial cells in the CA1 area. • Activation of AT100 positive neurons in the CA1 area.
Results were analyzed using GraphPad Prism software version 8.0.2. *p<0.05 after a One-way or Two-way ANOVA followed by Fisher's test was considered significant.

## O=c1oc2cc(O)ccc2c2ccc(OC3CCOCC3)cc12 [compound 33, 3-hydroxy-8-((tetrahydro-2H-pyran-4-yl)oxy)-6H-benzo[c]chromen-6-one]
1 mg/kg daily oral, 14 days post-surgery
  short-term spatial memory (time in new arm, Y-maze): able to prevent; also recorded: beneficial effects
1 mg/kg daily, day 1 to day 28
  AT100 (hyperphosphorylated Tau) in neurons: decrease
  activation of Iba1(+) microglial cells: significantly decrease
  survival of NeuN(+) neurons in CA1: significantly improved
1 mg/kg/d p.o., 14 days post-surgery
  total distance traveled in Y-maze: not different between groups
